From US9521847B2, “Synergistic weed control from applications of pyridine carboxylic acid herbicides and synthetic auxin herbicides and/or auxin transport inhibitors” (Dow AgroSciences LLC, priority 2014, dated 2016)

Key:
[1] = test system: turnip (Brassica rapa, BRSRR); assay: Greenhouse postemergence trial, % visual injury; format: in vivo; conditions: for % visual injury, Obs: BRSRR, compound 1 (EC) 5 g ae/ha
[2] = test system: wild radish (Raphanus raphanistrum, RAPRA); assay: Greenhouse postemergence trial, % visual injury; format: in vivo
[3] = test system: Indian hedge mustard (Sisymbrium orientale, SSYOR); assay: Greenhouse postemergence trial, % visual injury; format: in vivo
[4] = test system: Chinese kale (Brassica alboglabra, BRSAG); assay: Greenhouse postemergence trial, % visual injury; format: in vivo; conditions: for % visual injury, Obs: BRSAG, compound 1 (EC) 5 g ae/ha
[5] = test system: brown mustard (Brassica juncea, BRSJU); assay: Greenhouse postemergence trial, % visual injury; format: in vivo
[6] = test system: rutabaga (Brassica napus var. napobrassica, BRSNA); assay: Greenhouse postemergence trial, % visual injury; format: in vivo
[7] = test system: large crabgrass (Digitaria sanguinalis, DIGSA); assay: Greenhouse postemergence trial, % visual injury; format: in vivo; conditions: Digitaria sanguinalis, post-emergence; DIGSA, 5 g ae/ha; read-out: % visual injury, Obs
[8] = test system: barnyardgrass (Echinochloa crus-galli, ECHCG); assay: Greenhouse postemergence trial, % visual injury; format: in vivo
[9] = test system: soybean (Glycine max, GIAMA); assay: Greenhouse postemergence trial, % visual injury; format: in vivo; conditions: GLXMA
[10] = test system: ivyleaved speedwell (Veronica hederifolia, VERHE); assay: Greenhouse postemergence trial, % visual injury; format: in vivo; conditions: compound 1 (EC) 5 g ae/ha
[11] = test system: Roundup Ready rape (Brassica napus, BRSNN-RR); assay: Greenhouse postemergence trial, % visual injury; format: in vivo; conditions: compound 1 (EC) 5 g ae/ha
[12] = test system: blackgrass (Alopecurus myosuroides, ALOMY); assay: Greenhouse postemergence trial, % visual injury; format: in vivo; conditions: 140 g ae/ha
[13] = test system: kochia (KCHSC, Kochia scoparia); assay: Patio postemergence trial, % visual injury; format: in vivo; conditions: 280 g ae/ha alone, 20-22 d
Protocol: (§1) The plants were grown for 7-36 days (d) on a fenced, open-air patio. Nutrients and water were added on a regular basis.
(§2) Temperatures and photoperiods were dependent on the natural weather conditions during the trials. Weather conditions during trials were conducive for plant growth and development.

[14] = test system: pigweed (AMARE, Amaranthus retroflexus); assay: Patio postemergence trial, % visual injury; format: in vivo; conditions: 280 g ae/ha alone, 20-22 d
Protocol: as §1, §2

[15] = test system: CIRAR = Cirsium arvense (Canadian thistle); assay: Small plot field trial (Canada), % visual injury; format: in vivo; conditions: 560 g ae/ha alone, 46-64 DAA
Protocol: (§3) Trials were established as randomized complete blocks with 3-4 replicates. Individual plots were 2-3 meters (m) wide and 8-10 m long. Applications were made with backpack or tractor-mounted sprayers delivering a spray volume output of 100 liters per hectare (L/ha) using pressurized carbon dioxide (CO2) as a propellant. Compound 7 was combined with 2,4 D EHE (660 g ae/L EC formulation) and applied to spring wheat (TRZAS), and the phytotoxicity of the herbicidal compositions was measured. In addition, the efficacy of the herbicidal composition on Canadian thistle ([…], Cirsium arvense), […] scoparia), mallow ([…] pusilla), wild buckwheat (POLCO, Polygonum convolvulus), and lady's thumb (POLPE, Polygonum persicaria) was evaluated.

[16] = test system: MALPU = Malva pusilla (mallow); assay: Small plot field trial (Canada), % visual injury; format: in vivo; conditions: 560 g ae/ha alone, 26-33 DAA
Protocol: as §3

[17] = test system: kochia (KCHSC, Kochia scoparia); assay: Small plot field trial (Canada), % visual injury; format: in vivo; conditions: 560 g ae/ha alone, 46-64 DAA
Protocol: as §3

[18] = test system: lady's thumb (POLPE, Polygonum persicaria); assay: Small plot field trial (Canada), % visual injury; format: in vivo; conditions: 560 g ae/ha alone, 14-16 DAA
Protocol: as §3

[19] = test system: wild buckwheat (POLCO, Polygonum convolvulus); assay: Small plot field trial (Canada), % visual injury; format: in vivo; conditions: 560 g ae/ha alone, 15 DAA
Protocol: as §3

winter wheat (TRZAW) = conditions: winter wheat (Triticum aestivum), in vivo
[20] = 5 g ae/ha alone (compound 1 as EC), 20-22 d

`Nc1c(F)c(-c2ccc3cc[nH]c3c2F)nc(C(=O)O)c1Cl` [compound 1] was tested. Which “% visual injury, Obs” value ([1]; Table 62) did it give?
Its value is 50%.

And the “% visual injury, Obs” value ([1]; Table 63)?
The value was 50%.

And the “% visual injury (Obs)” value ([1]; compound 1 SC 2.5 g ae/ha)?
Its value is 45%.

And the “% visual injury (Obs)” value ([1]; compound 1 SC 5 g ae/ha)?
Its value is 62%.

What about the “% visual injury (Obs)” value ([2]; compound 1 SC 2.5 g ae/ha) of the same molecule?
The value was 13%.

What about the “% visual injury (Obs)” value ([2]; compound 1 SC 5 g ae/ha) of the same molecule?
Its value is 13%.

And the “% visual injury (Obs)” value ([3]; compound 1 SC 2.5 g ae/ha)?
Its value is 13%.

What about the “% visual injury (Obs)” value ([3]; compound 1 SC 5 g ae/ha) of the same molecule?
The value was 20%.

What about the “% visual injury Obs” value [4, 20] of the same molecule?
Its value is 15%.

And the “% visual injury, Obs” value ([4]; Table 62)?
The value was 15%.

And the “% visual injury, Obs” value ([4]; Table 63)?
Its value is 15%.

What about the “% visual injury Obs” value [5, 20] of the same molecule?
The value was 60%.

And the “% visual injury, Obs” value ([5]; BRSJU, compound 1 (EC) 5 g ae/ha, Table 62)?
Its value is 60%.

What about the “% visual injury Obs” value [6, 20] of the same molecule?
Its value is 65%.

What about the “% visual injury, Obs” value ([6]; BRSNA, compound 1 (EC) 5 g ae/ha, Table 63) of the same molecule?
Its value is 65%.

What about the pest or weed control at 5 g/ha [7] of the same molecule?
The pest or weed control at 5 g/ha was 0%.

What about the “% visual injury, Obs” value ([8]; ECHCG, 5 g ae/ha) of the same molecule?
The value was 65%.

And the “% visual injury (Obs)” value ([8]; compound 1 (EC) 5 g ae/ha)?
Its value is 65%.

And the “% visual injury, Obs” value ([9]; 5 g ae/ha)?
Its value is 95%.

What about the “% visual injury, Obs” value ([9]; 10 g ae/ha) of the same molecule?
The value was 100%.

And the “% visual injury (Obs)” value [10]?
The value was 40%.

What about the “% visual injury, Obs” value ([11]; Table 62) of the same molecule?
The value was 35%.

What about the “% visual injury, Obs” value ([11]; Table 63) of the same molecule?
The value was 35%.

What does the source list for `CCCCC(CC)COC(=O)COc1ccc(Cl)cc1Cl` (centres unmarked) [2,4-D EHE, 2-ethylhexyl (2,4-dichlorophenoxy)acetate, reference compound]?
% visual injury, Obs [12]: 0%; % visual injury Obs [13]: 10%; % visual injury Obs [14]: 50%; % visual injury Obs [15]: 65%; % visual injury Obs [16]: 74%; % visual injury Obs [17]: 25%; % visual injury Obs [18]: 55%; % visual injury Obs [19]: 51%; % visual injury, Obs (winter wheat (TRZAW)): 0%
